# Laboratory results taken from paper PMC11739509, “Transport and inhibition of the sphingosine-1-phosphate exporter SPNS2” (Nature Communications, 2025).
# Tests used:
# [1] = target: T1, SPNS2 (Homo sapiens, UniProt Q8IVW8); assay: S1PR3-coupled S1P export assay in CHO cells; assay type: cell-based; set-up: untagged wild type SPNS2 overexpressed with SphK1 in CHO-K1 cells
# T1 sequence (Q8IVW8 1-549): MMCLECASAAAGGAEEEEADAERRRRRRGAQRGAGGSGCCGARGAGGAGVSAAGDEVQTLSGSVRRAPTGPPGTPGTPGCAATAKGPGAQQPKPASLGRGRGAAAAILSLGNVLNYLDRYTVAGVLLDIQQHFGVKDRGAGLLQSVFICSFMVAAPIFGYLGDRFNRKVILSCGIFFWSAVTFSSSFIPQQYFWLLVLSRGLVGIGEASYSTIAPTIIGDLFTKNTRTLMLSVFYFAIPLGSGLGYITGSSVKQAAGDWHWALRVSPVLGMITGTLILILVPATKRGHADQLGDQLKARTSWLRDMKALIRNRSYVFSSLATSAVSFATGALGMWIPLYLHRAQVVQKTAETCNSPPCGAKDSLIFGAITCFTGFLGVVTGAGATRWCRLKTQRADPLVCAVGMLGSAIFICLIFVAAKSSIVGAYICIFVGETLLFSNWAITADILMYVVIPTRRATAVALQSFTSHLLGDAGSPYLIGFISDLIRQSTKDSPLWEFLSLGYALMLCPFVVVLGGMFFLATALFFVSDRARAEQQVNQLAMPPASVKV
# [2] = target: T1, SPNS2; assay: S1PR3-coupled S1P export assay; R200S mutant inactive; assay type: cell-based; set-up: untagged wild type SPNS2 overexpressed with SphK1 in CHO-K1 cells
# [3] = target: T1, SPNS2; assay: cryo-EM structure at […] Å (detergent modeled as dodecyl glucoside; mixture of DDM and S1P not excluded); assay type: binding; set-up: full-length human SPNS2; residues 1-99, 287-296 and 352-358 not resolved; with nanobody NbD12
# [4] = target: T2, Biotinylated SPNS2 (full-length, codon-optimized, C-terminal AVI and Flag tag) (Homo sapiens, UniProt Q8IVW8, biotin (AVI tag, BirA co-expressed)); assay: SPR; Biacore 8K; biotinylated SPNS2 immobilised on SA sensor chip (600 to 800 RU); nanobody series 0 to 1 or 10 uM injected; 20 mM HEPES pH 7.5, 150 mM NaCl, 0.026% DDM, 0.01% fatty acid free BSA; 25 °C; 1:1 interaction model; details: both partners purified
# T2 construct: SPNS2, full-length codon-optimized, in the in-house baculovirus vector pD-INS3; The species is not repeated in the paragraph on this construct; also called Biotinylated SPNS2 protein; source: Sf9 cells co-infected with SPNS2 and BirA baculovirus, biotin in the medium; purified in DDM or LMNG (Anti-Flag M2 resin, SEC); not shown: AVI, C-terminal, kept
molecule,measurement,setting,value
"CCCCCCCCCCc1ccc2nc(NC[C@H]3CCNC3)oc2c1 [33p, 6-decyl-N-[[(3S)-pyrrolidin-3-yl]methyl]-1,3-benzoxazol-2-amine]",IC50,[1],1900 ± 320 nM
CCCCCCCCCCCCC/C=C/[C@@H](O)[C@@H](N)COP(=O)(O)O [Sphingosine-1-phosphate],S1PR3-coupled S1P export assay; R200S mutant inactive,[2],"Validating this assay, the SPNS2 mutation R200S shows no S1P transport activity"
CCCCCCCCCCCCO[C@@H]1O[C@H](CO)[C@@H](O[C@H]2O[C@H](CO)[C@@H](O)[C@H](O)[C@H]2O)[C@H](O)[C@H]1O [n-dodecyl-β-D-maltopyranoside],cryo-EM structure at 3.7 Å (detergent modeled as dodecyl glucoside); mixture of D,[3],the unknown density fits the acyl chain and first glucose of n-dodecyl-β-D-maltopyranoside
"Nanobody D12 (NbD12) (VHH, Raised by immunising alpacas with SPNS2 and selected by phage display; Subcloned into pBXNP (Addgene 110098) modified to carry a 1x FLAG tag upstream of the 10x His tag; The FLAG tag is used for capture and detection in the co-IP and the immunofluorescence; source: E. coli MC1061 periplasm, purified) VHH: QVQLVESGGGLVQAGGSLRLSCAASGRLLSWYDMAWFRQAPGKEREFVAAVTSTGAGTHYVDSVKGRFTISRVNAKNTMYLQMNSLKPEDTAVYYCAAANTRLTALSLRTTTGSWAYWGKGTPVTVSS",Kd,[4],7.75 nM
